The record followed here is patent US20250034170A1, “SMALL MOLECULE MODULATORS OF GLUCOCEREBROSIDASE ACTIVITY AND USES THEREOF” (Vanqua Bio, Inc., priority 2021, published 2025).

The target in this assay is T1, GCase (Homo sapiens, UniProt P04062).
T1 construct: endogenous in cells; host or cells: HeLa cells
T1 sequence (P04062 40-536): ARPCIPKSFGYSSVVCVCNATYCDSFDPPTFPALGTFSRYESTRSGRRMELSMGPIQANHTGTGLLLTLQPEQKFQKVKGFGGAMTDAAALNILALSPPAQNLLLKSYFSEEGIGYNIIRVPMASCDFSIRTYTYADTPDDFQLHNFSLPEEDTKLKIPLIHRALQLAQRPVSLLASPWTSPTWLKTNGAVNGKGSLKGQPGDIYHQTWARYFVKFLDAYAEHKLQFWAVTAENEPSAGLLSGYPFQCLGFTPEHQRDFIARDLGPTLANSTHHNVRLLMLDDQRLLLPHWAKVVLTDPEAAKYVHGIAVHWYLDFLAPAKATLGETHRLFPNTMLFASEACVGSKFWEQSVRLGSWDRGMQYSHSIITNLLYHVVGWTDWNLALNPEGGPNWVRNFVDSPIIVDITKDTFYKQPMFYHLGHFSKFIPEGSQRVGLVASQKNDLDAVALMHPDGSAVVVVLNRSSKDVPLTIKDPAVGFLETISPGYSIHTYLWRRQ
Nature of the assay: activation of GCase in a live cell PFB assay in HELA cells. The class given is cell-based. As to the method: Exemplary compounds were evaluated for activation of GCase in a live cell PFB assay in HELA cells (essentially as described in Ysselstein et al., “LRRK2 kinase activity regulates lysosomal glucocerebrosidase in neurons derived from Parkinson's disease patients” Nature Communications (2019) 10:5570). […] EC50 ranges: A: <10 μM; B: >10-50 μM; C: >50-100 μM; D: >100 μM.

Where [1] appears, read: activation of GCase, EC50 ranges.

As to `FC(F)Cn1ncc2ncc(N3CCC4(CCCN(c5cccc(C(F)(F)F)n5)C4)CC3)nc21` [Cmpd 216], the EC50 (EC50 given as range classes) lay within 10 to 50 µM.

As for `Cc1cc(N2CC3(CCN(c4ncc5c(C)nn(CC(F)F)c5n4)C3)C2)nc(C)n1` [Cmpd 641], under setting [1], the EC50 fell in the range of 10 to 50 µM.

For the compound `Cc1nc(C(F)(F)F)ncc1N1CCC2(CCN(c3cnc4cnn(C5COC5)c4n3)CC2)C1` [Cmpd 1056], under setting [1], the EC50 lay in the range of 10 to 50 µM.

Under setting [1], `O=S(=O)(c1ccc(C(F)(F)F)cc1)N1CC2(CCN(c3cnc4cnn(CC(F)F)c4n3)C2)C1` [Cmpd 372] had an EC50 of 10 to 50 µM.

As for `Cn1c(N2CCC3(CN(c4cnc(C(F)(F)F)nc4)C3)C2)nc2c(cnn2CC(F)F)c1=O` [Cmpd 988], under “EC50 given as range classes”, the half-maximal effective concentration (EC50) is less than 10 µM.

Under setting [1], `O=C(c1cnc(C(F)(F)F)nc1)N1CCC2(CC1)CN(c1cnc3cnn(CC(F)F)c3n1)C2` [Cmpd 329] returned an EC50 of 10 to 50 µM.

Regarding `O=C1CC2(CCN(c3cnc4cnn(CC(F)F)c4n3)CC2)CN1Cc1ccnc(C(F)(F)F)c1F` [Cmpd 966], the EC50 under setting [1] is less than 10 µM.

For the compound `O=C1N(c2cncc(C(F)(F)F)n2)CCC12CCN(c1ncc3cnn(CC(F)F)c3n1)CC2` [Cmpd 287], under setting [1], the EC50 was more than 100 µM.

As for `Cc1cc(N2CC3(CCN(c4cnc5cnn(CC(F)(F)F)c5n4)C3)C2)nc(C(F)(F)F)n1` [Cmpd 463], the EC50 under setting [1] lay within 10 to 50 µM.

In turn, `FC(F)(F)c1ccncc1OC1CC2(CCCN(c3cncc(-c4nncs4)n3)C2)C1` (stereo not drawn) [Compound 2, 6-[6-(1,3,4-thiadiazol-2-yl)pyrazin-2-yl]-2-{[4-(trifluoromethyl)pyridin-3-yl]oxy}-6-azaspiro[3.5]nonane] had an EC50 under setting [1] of less than 10 µM.

Where the note is “EC50 given as range classes”, `Cc1nc(N2CCC3(CCN(c4cc5c(cn4)cnn5CC(F)F)CC3)C2)cc(C(F)(F)F)n1` [Cmpd 633] returned a 50% effective concentration (EC50) of less than 10 µM.

Consider `FC(F)Cn1ncc2ncc(N3CCC4(CN(Cc5ccc(C(F)(F)F)cn5)C4)C3)nc21` [Cmpd 321], for which the EC50 under setting [1] is less than 10 µM.

On to `O=C1N(c2ccc(C(F)(F)F)cn2)CCC12C1CCC2CN(c2cnc3cnn(CC(F)F)c3n2)C1` (stereo not drawn) [Cmpd 800], for which the EC50 (EC50 given as range classes) was less than 10 µM.

With `CCN1C(=O)N(c2ccc(C(F)(F)F)cc2)C(=O)C12CCN(c1cnc3cnn(CC(F)F)c3n1)CC2` [Cmpd 868], under setting [1], the EC50 was in the range of 10 to 50 µM.

Under setting [1], `O=C1CC2(CCN(c3cnc4cnn(CC(F)F)c4n3)CC2)CN1c1cnc(C(F)(F)F)nc1` [Cmpd 305] registered an EC50 of 10 to 50 µM.

In turn, `Cc1cc(N2CC3(CCN(c4ncc5c(C)nn(CC(F)F)c5n4)C3)C2)nc(C(F)(F)F)n1` [Cmpd 468] registered an EC50 under setting [1] of less than 10 µM.

The compound `O=C1CC2(CCN(c3cnc4cnn(C5COC5)c4n3)CC2)CN1c1ccc(C(F)(F)F)cn1` [Cmpd 857] registered an EC50 under setting [1] of less than 10 µM.

`Cc1nc(N2CC3(CCN(c4cnc5cnn(CC(F)F)c5n4)C3)C2)cc(C(F)(F)F)n1` [Cmpd 422] came in with an EC50 (EC50 given as range classes) of less than 10 µM.

`COc1nc(N2CCC3(CC2)CC(=O)N(c2cc(C(F)(F)F)ccn2)C3)nc2c1cnn2CC(F)F` [Cmpd 304] returned an EC50 under setting [1] of less than 10 µM.

For `CC1(C)N(c2ccc(C(F)(F)F)nc2)C(=O)CC12CCN(c1cnc3cnn(CC(F)F)c3n1)CC2` [Cmpd 816], under “EC50 given as range classes”, the EC50 lay in the range of 10 to 50 µM.

With `O=C(c1ccc(C(F)(F)F)cn1)N1CC2(CCN(c3cnc4cnn(CC(F)F)c4n3)C2)C1` [Cmpd 323], the EC50 under setting [1] was more than 100 µM.

`O=S(=O)(c1ccccc1F)N1CC2(CCN(c3cnc4cnn(CC(F)F)c4n3)C2)C1` [Cmpd 395] showed an EC50 (EC50 given as range classes) of less than 10 µM.

With `O=C1CC2(CCN(c3cnc4cnn(CC(F)F)c4n3)CC2)CN1c1cncc(C(F)(F)F)c1` [Cmpd 681], the EC50 under setting [1] was in the range of 10 to 50 µM.

On to `CC1(C)N(c2cc(C(F)(F)F)ccn2)C(=O)CC12CCN(c1cnc3cnn(CC(F)F)c3n1)CC2` [Cmpd 662], for which the EC50 under setting [1] fell in the range of 10 to 50 µM.

Compound `FC(F)Cn1ncc2ncc(N3CCC4(CC3)CC(COc3ncccc3C(F)(F)F)C4)nc21` [Cmpd 700] showed an EC50 under setting [1] of less than 10 µM.

In the case of `Cc1nc(N2CC3(CCN(c4cncc(-c5ccnn5CC(F)F)n4)C3)C2)cc(C(F)(F)F)n1` [Cmpd 1119], the EC50 under setting [1] fell in the range of 10 to 50 µM.

Under “EC50 given as range classes”, `O=C1CCC2(CCN(c3cnc4cnn(CC(F)F)c4n3)C2)CN1c1ccc(C(F)(F)F)nc1` (stereo not drawn) [Cmpd 790] showed an EC50 of less than 10 µM.

Under setting [1], `O=C1N(c2cc(C(F)(F)F)ccn2)CCC12CCN(c1cncc(-c3nncs3)n1)CC2` [Compound 169, 8-[6-(1,3,4-thiadiazol-2-yl)pyrazin-2-yl]-2-[4-(trifluoromethyl)pyridin-2-yl]-2,8-diazaspiro[4.5]decan-1-one] showed an EC50 of less than 10 µM.

The compound `Cc1nc(N2CCC3(CCN(c4cnc5c(C)nn(C6COC6)c5n4)CC3)C2)cc(C(F)(F)F)n1` [Cmpd 549] showed an EC50 under setting [1] of more than 100 µM.

In turn, `O=C(c1ccc(C(F)(F)F)cn1)N1CCC2(CCN(c3cnc4cnn(CC(F)F)c4n3)CC2)C1` [Cmpd 314] returned an EC50 under setting [1] of more than 100 µM.

Under “EC50 given as range classes”, `Cc1nc(N2CCC3(C2)CN(c2cnc4c(C)nn(CC(F)(F)F)c4n2)C3)cc(C(F)(F)F)n1` [Cmpd 609] had an EC50 of 10 to 50 µM.

As to `FC(F)Cn1ncc2ncc(N3CC[C@]4(CCN(c5cnc(C(F)(F)F)nc5)C4)C3)nc21` [Cmpd 1133], the EC50 under setting [1] lay within 10 to 50 µM.

In turn, `Cn1c(=O)n(C2COC2)c2ncc(N3CCC4(CN(c5ccnc(C(F)(F)F)c5)C4)C3)nc21` [Cmpd 979] yielded an EC50 (EC50 given as range classes) of less than 10 µM.

`FC(F)Cn1ncc2ncc(N3CCC4(CN(c5cnc(C(F)(F)F)nc5)C4)C3)nc21` [Cmpd 316] displayed an EC50 under setting [1] of 10 to 50 µM.

In the case of `Cc1ncc(N2CCC3(CCN(c4cnc5c(C)nn(CC(F)F)c5n4)CC3)C2)c(C(F)(F)F)n1` [Cmpd 602], the EC50 (EC50 given as range classes) lay in the range of 10 to 50 µM.

On to `FC(F)(F)c1cc(N2CC3(CCN(c4nccc(-c5nncs5)n4)C3)C2)ccn1` [Cmpd 986], for which the EC50 (EC50 given as range classes) was less than 10 µM.

The compound `FC(F)Cn1ncc2ncc(N3CCC4(CCN(c5cccc(C(F)(F)F)n5)CC4)C3)nc21` [Compound 149, 2-[1-(2,2-difluoroethyl)-1H-pyrazolo[3,4-b]pyrazin-6-yl]-8-[6-(trifluoromethyl)pyridin-2-yl]-2,8-diazaspiro[4.5]decane] returned an EC50 under setting [1] of less than 10 µM.

Compound `COc1ncc(N2CC3(CCN(c4cnc5cnn(CC(F)F)c5n4)C3)C2)cn1` [Cmpd 410] displayed a half-maximal effective concentration (EC50) (EC50 given as range classes) of 50 to 100 µM.

Turning to `CC1CC2(CCN(c3cc(C(F)(F)F)ccn3)C2)CCN1c1cnc2cnn(CC(F)F)c2n1` (stereo not drawn) [Cmpd 745], under setting [1], the EC50 is less than 10 µM.

Under setting [1], `Cc1cc(C(F)(F)F)cnc1N1CCC2(CCN(c3cnc4cnn(CC(F)F)c4n3)CC2)C1=O` [Cmpd 775] gave an EC50 of more than 100 µM.

With `O=C1CC2(CN1c1ccc(F)c(C(F)(F)F)c1)C1CC2CN(c2cnc3cnn(CC(F)F)c3n2)C1` (stereo not drawn) [Cmpd 722], under setting [1], the EC50 lay in the range of 10 to 50 µM.

For the setting “EC50 given as range classes”, `FC(F)Cn1ncc2ncc(NC3COC4(C3)CN(c3cc(C(F)(F)F)ccn3)C4)nc21` (stereo not drawn) [Cmpd 192] registered an EC50 of less than 10 µM.

Compound `FC(F)Cn1ncc2ncc(N3CC4(CCCN(c5ccc(C(F)F)nc5)C4)C3)nc21` [Compound 157, 2-[1-(2,2-difluoroethyl)-1H-pyrazolo[3,4-b]pyrazin-6-yl]-6-[6-(difluoromethyl)pyridin-3-yl]-2,6-diazaspiro[3.5]nonane] had an EC50 under setting [1] of more than 100 µM.

For the compound `Cc1nc(N2CC3(CCN(c4ccc5c(C)nn(CC(F)F)c5n4)C3)C2)cc(C(F)(F)F)n1` [Cmpd 622], the half-maximal effective concentration (EC50) (EC50 given as range classes) was 10 to 50 µM.

In the case of `O=C1CCC2(CCN(c3cnc4cnn(CC(F)F)c4n3)C2)CN1c1cncc(C(F)(F)F)c1` (stereo not drawn) [Cmpd 796], for the setting “EC50 given as range classes”, the EC50 is less than 10 µM.

`Cn1c(=O)n(CC(F)F)c2nc(N3CCC4(CN(c5ccnc(C(F)(F)F)c5)C4)C3)cnc21` [Cmpd 977] had an EC50 under setting [1] of 10 to 50 µM.

In the case of `O=C1C[C@@]2(CC3CCC2CN3c2cnc3cnn(CC(F)F)c3n2)CN1c1ccc(C(F)(F)F)cn1` (stereo partly drawn) [Cmpd 863], the EC50 under setting [1] is less than 10 µM.

Under setting [1], `CCN1C(=O)N(c2ccnc(C(F)(F)F)n2)C(=O)C12CCN(c1cnc3cnn(CC(F)F)c3n1)CC2` [Cmpd 906] returned a half-maximal effective concentration (EC50) of 10 to 50 µM.

Take `Cc1nc(C(F)(F)F)ncc1N1CC2(CCN(c3cnc4cnn(CC(F)F)c4n3)C2)C1` [Cmpd 957]: under setting [1], the EC50 fell in the range of 10 to 50 µM.

Take `Cc1nc(N2CC3(CCN(c4ncc5c(C)nn(CC(F)F)c5n4)C3)C2)cc(C(F)(F)F)n1` [Cmpd 502]: under setting [1], the EC50 is less than 10 µM.

Under setting [1], `FC(F)(F)Cn1ncc2ncc(N3CC4(CCCN(c5ccc(C(F)(F)F)nc5)C4)C3)nc21` [Compound 136, 2-[1-(2,2,2-trifluoroethyl)-1H-pyrazolo[3,4-b]pyrazin-6-yl]-6-[6-(trifluoromethyl)pyridin-3-yl]-2,6-diazaspiro[3.5]nonane] registered an EC50 of 10 to 50 µM.

Consider `FC(F)(F)c1cncc(N2CCC3(CCN(c4cnc5cnn(C6COC6)c5n4)CC3)C2)n1` [Cmpd 768], for which the EC50 under setting [1] is less than 10 µM.

Regarding `CCn1c(N2CCC3(CC2)CC(=O)N(c2ccnc(C(F)(F)F)c2)C3)nc2c(cnn2CC(F)F)c1=O` [Cmpd 1019], the EC50 (EC50 given as range classes) is less than 10 µM.

`O=C1N(c2cnc3cnn(CC(F)F)c3n2)CCC12CCN(c1ccc(C(F)(F)F)cn1)C2` (stereo not drawn) [Cmpd 520] registered an EC50 under setting [1] of 10 to 50 µM.

Turning to `FC(F)Cn1ncc2ncc(N3CCC4(CC3)CC(Nc3cc(C(F)(F)F)ccn3)C4)nc21` [Cmpd 231], the EC50 (EC50 given as range classes) lay in the range of 10 to 50 µM.

Take `CC1CC2(CCN1c1cnc3cnn(CC(F)F)c3n1)CC(=O)N(c1cc(C(F)(F)F)ccn1)C2` (stereo not drawn) [Cmpd 726]: the EC50 under setting [1] lay within 10 to 50 µM.

`CCn1c(N2CCC3(CCN(c4cc(C(F)(F)F)nc(C)n4)C3)CC2)nc2c(cnn2C2COC2)c1=O` [Cmpd 1110] displayed an EC50 under setting [1] of 50 to 100 µM.

Usually EC50 stands for the concentration needed to bring the measured effect to its halfway point. Higher therefore signals a need for much substance.
